# Source: patent US11564913B2, “Compositions and methods for treating cancer” (Children's Hospital Medical Center, priority 2019, dated 2023)
# Biological target: T1, recombinant Vav3 (Homo sapiens, UniProt Q9UKW4)
# T1 construct: His6; made in house; host or cells: E. coli BL21 (DE3) or T7 Express, co-expressed with groEL-groES
# Experiment: Microscale thermophoresis (MST) binding
# Conditions: one molecule of IODVA1 binds, read-out: binding affinity (Kd)
# Procedure: FIG. 14: IODVA1 targets Vav3 in vitro and in vivo. (A) Ba/F3 cells expressing empty vector Mieg3 or p190-BCR-ABL1 were treated with vehicle control or IODVA1 (IO1, 3 μM) for 30 min and incubated with GST-Rac and glutathione beads. Beads were washed and the protein complexes were separated on SDS-PAGE and immunoblotted for pVav3. Input Vav3 was used as control. (B) Binding affinity (Kd) between IODVA1 and Vav3 (green), LARG (brown), and RacGDP (blue). […] Error bars=SD; N=3. (C) Quantification of the average number of colonies made by bone marrow wild-type (black) and Vav3^−/− (lilac) p190-BCR-ABL1 leukemic cells treated with vehicle control or IODVA1 (IO1, 1 and 3 μM) (* p≤0.05; ** p≤0.01; *** p≤0.001; ns, not significant). (D) Representative histogram data of the cell cycle analysis of wild-type (black and grey bars) and Vav3^−/− (dark and light lilac) bone marrow cells expressing p190-BCR-ABL and treated with vehicle control or IODVA1 (IO1, 3 μM) for 20 h. (E) Quantification by densitometry of the pVav3 band from FIG. 14A. […]
# To test this hypothesis, we measured its binding affinity (Kd) to recombinant Vav3 and Rac1 using microscale thermophoresis (MST); the catalytic domain (DH/PH) of the RhoGEF LARG served as negative control. […] Second, like Vav3, LARG contains a DH/PH domain responsible for the exchange activity such that any non-specific binding to this domain should be detected. […]
# T1 sequence (Q9UKW4 whole entry, species assumed): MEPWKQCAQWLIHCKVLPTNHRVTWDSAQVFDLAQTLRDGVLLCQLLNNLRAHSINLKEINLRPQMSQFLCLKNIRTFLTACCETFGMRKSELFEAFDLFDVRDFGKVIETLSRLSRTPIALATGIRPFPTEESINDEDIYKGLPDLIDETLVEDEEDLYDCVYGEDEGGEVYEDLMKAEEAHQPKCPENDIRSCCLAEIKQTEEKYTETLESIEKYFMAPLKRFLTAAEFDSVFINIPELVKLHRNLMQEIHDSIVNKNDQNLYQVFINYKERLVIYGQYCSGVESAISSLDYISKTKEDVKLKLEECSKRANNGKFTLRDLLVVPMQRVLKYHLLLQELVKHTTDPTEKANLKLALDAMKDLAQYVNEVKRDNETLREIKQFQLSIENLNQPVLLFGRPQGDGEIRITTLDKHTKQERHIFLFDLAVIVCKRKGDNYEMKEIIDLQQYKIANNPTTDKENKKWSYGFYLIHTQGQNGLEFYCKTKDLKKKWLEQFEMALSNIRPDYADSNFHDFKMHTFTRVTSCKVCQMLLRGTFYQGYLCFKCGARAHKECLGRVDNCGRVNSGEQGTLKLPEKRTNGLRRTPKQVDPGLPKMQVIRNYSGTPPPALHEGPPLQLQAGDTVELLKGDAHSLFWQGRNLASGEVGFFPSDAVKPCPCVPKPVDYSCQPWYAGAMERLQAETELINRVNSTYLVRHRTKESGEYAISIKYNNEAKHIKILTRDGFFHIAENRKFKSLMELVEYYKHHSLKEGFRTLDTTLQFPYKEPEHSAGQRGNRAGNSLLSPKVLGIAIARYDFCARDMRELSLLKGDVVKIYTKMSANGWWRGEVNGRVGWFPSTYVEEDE
smiles,measurement,value
"OC1(c2ccccn2)N=C(Nc2nc3ccccc3[nH]2)N=C1c1ccccn1 (stereo not shown) [IODVA1, (Z)-2-((1H-benzo[d]imidazol-2-yl)imino)-4,5-di(pyridin-2-yl)-2,5-dihydro-1H-imidazol-5-ol]",Kd,512 nM
